From patent US8192962B2, “Processes for detecting toxic substances” (Daikin Industries, Ltd., priority 2001, dated 2012)

Tested on: Detoxification protein genes
Test: DNA chip mRNA expression in yeast, detoxification protein genes (Table 8)
Format: cell-based, Saccharomyces cerevisiae S288C
In short: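 Values are treated/untreated fluorescence ratios from a whole-genome yeast DNA chip hybridized over 12 hours at 65° C with Cy3- or Cy5-labelled cDNA from poly(A) mRNA. Log-phase S288C yeast in YPD at 25° C had received a single toxic chemical for two hours, dosed to slow growth without killing.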

SMILES: CN(C)C(=S)SSC(=S)N(C)C [(10), Tetramethylthiuram disulfide]
- The level of expressed mRNA in the presence of chemical substance/The level of expressed mRNA in the absence of chemical substance (yeast gene YBL064C): 3.8
- The level of expressed mRNA in the presence of chemical substance/The level of expressed mRNA in the absence of chemical substance (yeast gene YBR008C): 21.1
- The level of expressed mRNA in the presence of chemical substance/The level of expressed mRNA in the absence of chemical substance (yeast gene YBR145W): 1.1
- The level of expressed mRNA in the presence of chemical substance/The level of expressed mRNA in the absence of chemical substance (yeast gene YBR244W): 3.0
- The level of expressed mRNA in the presence of chemical substance/The level of expressed mRNA in the absence of chemical substance (yeast gene YBR293W): 2.4
- The level of expressed mRNA in the presence of chemical substance/The level of expressed mRNA in the absence of chemical substance (yeast gene YCL035C): 2.3
- The level of expressed mRNA in the presence of chemical substance/The level of expressed mRNA in the absence of chemical substance (yeast gene YCL069W): 6.9
- The level of expressed mRNA in the presence of chemical substance/The level of expressed mRNA in the absence of chemical substance (yeast gene YCR083W): 1.8
- The level of expressed mRNA in the presence of chemical substance/The level of expressed mRNA in the absence of chemical substance (yeast gene YDL100C): 3.2
- The level of expressed mRNA in the presence of chemical substance/The level of expressed mRNA in the absence of chemical substance (yeast gene YDL168W): 4.7
- The level of expressed mRNA in the presence of chemical substance/The level of expressed mRNA in the absence of chemical substance (yeast gene YDR256C): 2.0
- The level of expressed mRNA in the presence of chemical substance/The level of expressed mRNA in the absence of chemical substance (yeast gene YDR453C): 6.1
- The level of expressed mRNA in the presence of chemical substance/The level of expressed mRNA in the absence of chemical substance (yeast gene YDR513W): 3.1
- The level of expressed mRNA in the presence of chemical substance/The level of expressed mRNA in the absence of chemical substance (yeast gene YDR538W): 0.8
- The level of expressed mRNA in the presence of chemical substance/The level of expressed mRNA in the absence of chemical substance (yeast gene YEL027W): 1.1
- The level of expressed mRNA in the presence of chemical substance/The level of expressed mRNA in the absence of chemical substance (yeast gene YEL065W): 4.9
- The level of expressed mRNA in the presence of chemical substance/The level of expressed mRNA in the absence of chemical substance (yeast gene YER185W): 1.2
- The level of expressed mRNA in the presence of chemical substance/The level of expressed mRNA in the absence of chemical substance (yeast gene YFL050C): 1.6
- The level of expressed mRNA in the presence of chemical substance/The level of expressed mRNA in the absence of chemical substance (yeast gene YGL013C): 1.5
- The level of expressed mRNA in the presence of chemical substance/The level of expressed mRNA in the absence of chemical substance (yeast gene YGL254W): 1.8
- The level of expressed mRNA in the presence of chemical substance/The level of expressed mRNA in the absence of chemical substance (yeast gene YGR088W): 3.2
- The level of expressed mRNA in the presence of chemical substance/The level of expressed mRNA in the absence of chemical substance (yeast gene YGR138C): 1.0
- The level of expressed mRNA in the presence of chemical substance/The level of expressed mRNA in the absence of chemical substance (yeast gene YGR197C): 3.2
- The level of expressed mRNA in the presence of chemical substance/The level of expressed mRNA in the absence of chemical substance (yeast gene YGR209C): 6.3
- The level of expressed mRNA in the presence of chemical substance/The level of expressed mRNA in the absence of chemical substance (yeast gene YGR224W): 0.9
- The level of expressed mRNA in the presence of chemical substance/The level of expressed mRNA in the absence of chemical substance (yeast gene YHL040C): 11.3
- The level of expressed mRNA in the presence of chemical substance/The level of expressed mRNA in the absence of chemical substance (yeast gene YHL047C): 11.9
- The level of expressed mRNA in the presence of chemical substance/The level of expressed mRNA in the absence of chemical substance (yeast gene YHR008C): 2.4
- The level of expressed mRNA in the presence of chemical substance/The level of expressed mRNA in the absence of chemical substance (yeast gene YHR048W): 2.7
- The level of expressed mRNA in the presence of chemical substance/The level of expressed mRNA in the absence of chemical substance (yeast gene YHR053C): 2.9
- The level of expressed mRNA in the presence of chemical substance/The level of expressed mRNA in the absence of chemical substance (yeast gene YHR055C): 3.3
- The level of expressed mRNA in the presence of chemical substance/The level of expressed mRNA in the absence of chemical substance (yeast gene YIR002C): 1.4
- The level of expressed mRNA in the presence of chemical substance/The level of expressed mRNA in the absence of chemical substance (yeast gene YIR038C): 4.5
- The level of expressed mRNA in the presence of chemical substance/The level of expressed mRNA in the absence of chemical substance (yeast gene YJL101C): 3.6
- The level of expressed mRNA in the presence of chemical substance/The level of expressed mRNA in the absence of chemical substance (yeast gene YJR104C): 2.8
- The level of expressed mRNA in the presence of chemical substance/The level of expressed mRNA in the absence of chemical substance (yeast gene YKL026C): 3.0
- The level of expressed mRNA in the presence of chemical substance/The level of expressed mRNA in the absence of chemical substance (yeast gene YKL064W): 1.6
- The level of expressed mRNA in the presence of chemical substance/The level of expressed mRNA in the absence of chemical substance (yeast gene YKR066C): 2.4
- The level of expressed mRNA in the presence of chemical substance/The level of expressed mRNA in the absence of chemical substance (yeast gene YKR105C): 5.2
- The level of expressed mRNA in the presence of chemical substance/The level of expressed mRNA in the absence of chemical substance (yeast gene YKR106W): 7.4
- The level of expressed mRNA in the presence of chemical substance/The level of expressed mRNA in the absence of chemical substance (yeast gene YLL028W): 2.3
- The level of expressed mRNA in the presence of chemical substance/The level of expressed mRNA in the absence of chemical substance (yeast gene YLL057C): 2.9
- The level of expressed mRNA in the presence of chemical substance/The level of expressed mRNA in the absence of chemical substance (yeast gene YLL060C): 23.2
- The level of expressed mRNA in the presence of chemical substance/The level of expressed mRNA in the absence of chemical substance (yeast gene YLR043C): 2.5
- The level of expressed mRNA in the presence of chemical substance/The level of expressed mRNA in the absence of chemical substance (yeast gene YLR046C): 1.4
- The level of expressed mRNA in the presence of chemical substance/The level of expressed mRNA in the absence of chemical substance (yeast gene YML028W): 1.8
- The level of expressed mRNA in the presence of chemical substance/The level of expressed mRNA in the absence of chemical substance (yeast gene YML116W): 3.1
- The level of expressed mRNA in the presence of chemical substance/The level of expressed mRNA in the absence of chemical substance (yeast gene YMR015C): 0.3
- The level of expressed mRNA in the presence of chemical substance/The level of expressed mRNA in the absence of chemical substance (yeast gene YMR038C): 2.6
- The level of expressed mRNA in the presence of chemical substance/The level of expressed mRNA in the absence of chemical substance (yeast gene YNL239W): 6.0
- The level of expressed mRNA in the presence of chemical substance/The level of expressed mRNA in the absence of chemical substance (yeast gene YNL241C): 7.4
- The level of expressed mRNA in the presence of chemical substance/The level of expressed mRNA in the absence of chemical substance (yeast gene YNL259C): 2.1
- The level of expressed mRNA in the presence of chemical substance/The level of expressed mRNA in the absence of chemical substance (yeast gene YOL158C): 6.1
- The level of expressed mRNA in the presence of chemical substance/The level of expressed mRNA in the absence of chemical substance (yeast gene YOR031W): 1.3
- The level of expressed mRNA in the presence of chemical substance/The level of expressed mRNA in the absence of chemical substance (yeast gene YOR153W): 1.2
- The level of expressed mRNA in the presence of chemical substance/The level of expressed mRNA in the absence of chemical substance (yeast gene YOR247W): 0.4
- The level of expressed mRNA in the presence of chemical substance/The level of expressed mRNA in the absence of chemical substance (yeast gene YOR251C): 0.8
- The level of expressed mRNA in the presence of chemical substance/The level of expressed mRNA in the absence of chemical substance (yeast gene YOR273C): 0.5
- The level of expressed mRNA in the presence of chemical substance/The level of expressed mRNA in the absence of chemical substance (yeast gene YPL163C): 0.4
- The level of expressed mRNA in the presence of chemical substance/The level of expressed mRNA in the absence of chemical substance (yeast gene YPR200C): 3.8
